Source: ChEMBL document CHEMBL5465560, “Selectivity Literature for EUbOPEN Chemogenomic Library” (2024)

What was measured:
[1] = molecular target: Mitogen-activated protein kinase kinase kinase 4 (Homo sapiens) (UniProt Q9Y6R4); assay: Selectivity interaction (KinomeScan (DiscoverX)) EUB0000695a MAP3K4; settings: at 100 nM
[2] = molecular target: Fibroblast growth factor receptor 1 (Homo sapiens, UniProt P11362); assay: Selectivity interaction (KinomeScan (DiscoverX)) EUB0001079a FGFR1; settings: at 1 µM
[3] = molecular target: T1, Ephrin type-B receptor 1 (Homo sapiens) (UniProt P54762); assay: Selectivity interaction (Kinase panel (Z-LYTE Assay)) EUB0001632a EPHB1; settings: at 10 µM
T1 sequence (whole entry): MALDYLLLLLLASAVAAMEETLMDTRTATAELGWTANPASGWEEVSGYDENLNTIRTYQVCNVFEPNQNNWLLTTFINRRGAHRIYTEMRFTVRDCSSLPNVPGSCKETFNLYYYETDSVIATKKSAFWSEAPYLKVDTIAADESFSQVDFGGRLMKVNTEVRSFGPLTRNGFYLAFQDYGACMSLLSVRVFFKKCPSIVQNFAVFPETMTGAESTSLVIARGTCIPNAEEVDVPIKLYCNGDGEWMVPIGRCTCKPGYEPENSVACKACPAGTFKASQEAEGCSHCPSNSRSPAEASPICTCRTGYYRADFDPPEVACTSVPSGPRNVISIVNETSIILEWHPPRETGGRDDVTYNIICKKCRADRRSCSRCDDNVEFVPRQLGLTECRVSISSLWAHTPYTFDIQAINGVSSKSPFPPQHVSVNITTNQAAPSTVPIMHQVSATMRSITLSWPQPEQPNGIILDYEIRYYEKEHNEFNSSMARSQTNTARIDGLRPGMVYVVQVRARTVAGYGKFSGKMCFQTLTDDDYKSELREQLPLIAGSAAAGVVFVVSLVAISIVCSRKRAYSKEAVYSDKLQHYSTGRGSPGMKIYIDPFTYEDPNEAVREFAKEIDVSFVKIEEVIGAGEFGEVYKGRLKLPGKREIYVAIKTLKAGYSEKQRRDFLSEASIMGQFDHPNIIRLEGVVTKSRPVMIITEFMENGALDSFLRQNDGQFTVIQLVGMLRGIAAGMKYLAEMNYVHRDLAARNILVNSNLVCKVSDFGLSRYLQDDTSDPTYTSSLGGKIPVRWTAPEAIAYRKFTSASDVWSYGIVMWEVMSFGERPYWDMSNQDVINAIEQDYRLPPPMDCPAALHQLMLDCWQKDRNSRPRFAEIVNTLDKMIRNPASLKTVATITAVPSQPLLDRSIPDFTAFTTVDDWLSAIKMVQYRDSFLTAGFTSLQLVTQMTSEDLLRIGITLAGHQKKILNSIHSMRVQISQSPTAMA

[4] = molecular target: Polycomb protein EED (Homo sapiens) (UniProt O75530); assay: Selectivity interaction (PWWP, WD40, and Tudor domain panel (DSLS measurements, literature)) EUB0000270b EED
[5] = molecular target: T1, Ephrin type-B receptor 1 (Homo sapiens); settings: at 10 µM
[6] = molecular target: Fibroblast growth factor receptor 3 (Homo sapiens, UniProt P22607); assay: (§1) Selectivity interaction (KinomeScan (DiscoverX)) EUB0001049a FGFR3; settings: at 1 µM
[7] = tested on: Fibroblast growth factor receptor 3 (Homo sapiens), P22607 [G697C]; assay: as §1; settings: at 1 µM
D(1A) dopamine receptor = D(1A) dopamine receptor (Homo sapiens, UniProt P21728); assay: Selectivity interaction (Panel of kinases, GPCRs, ion channels and transporters (enzymatic assay)) EUB0000223bCl DRD1
[8] = molecular target: Ribosomal protein S6 kinase alpha-5 (Homo sapiens) (UniProt O75582); assay: Selectivity interaction (KinomeScan (DiscoverX)) EUB0001619a RPS6KA5; settings: at 1 µM
[9] = molecular target: Casein kinase I isoform delta (Homo sapiens, UniProt P48730); assay: Selectivity interaction (KinomeScan (DiscoverX)) EUB0000607a CSNK1D; settings: at 10 µM
[10] = molecular target: Tyrosine-protein kinase Fer (Homo sapiens) (UniProt P16591); assay: Selectivity interaction (KinomeScan (DiscoverX)) EUB0000618a FER; settings: at 10 µM
[11] = molecular target: Cyclin-dependent kinase 2 (Homo sapiens, UniProt P24941); assay: Selectivity interaction (ActivX KiNativ screen (kinase selectivity in THP-1 cell lysates)) EUB0000639a CDK2; format: subcellular; settings: lysate, at 0.04 µM
[12] = molecular target: Vascular endothelial growth factor receptor 3 (Homo sapiens, UniProt P35916); assay: Selectivity interaction (KinomeScan (DiscoverX)) EUB0000699a FLT4; settings: at 10 µM
[13] = molecular target: Activin receptor type-1-like (Homo sapiens) (UniProt P37023); assay: Selectivity interaction (KinomeScan (DiscoverX)) EUB0000092b ACVRL1; settings: at 10 µM
[14] = molecular target: Myosin light chain kinase, smooth muscle (Homo sapiens, UniProt Q15746); assay: Selectivity interaction (KinomeScan (DiscoverX)) EUB0000092b MYLK; settings: at 10 µM
[15] = molecular target: T2, Interleukin-1 receptor-associated kinase 4 (Homo sapiens) (UniProt Q9NWZ3); assay: Selectivity interaction (Ambit KINOMEscan and KiNATiv profiling in Jurkat cells) EUB0000090b IRAK4; format: cell-based; settings: at 1 µM
T2 sequence (whole entry): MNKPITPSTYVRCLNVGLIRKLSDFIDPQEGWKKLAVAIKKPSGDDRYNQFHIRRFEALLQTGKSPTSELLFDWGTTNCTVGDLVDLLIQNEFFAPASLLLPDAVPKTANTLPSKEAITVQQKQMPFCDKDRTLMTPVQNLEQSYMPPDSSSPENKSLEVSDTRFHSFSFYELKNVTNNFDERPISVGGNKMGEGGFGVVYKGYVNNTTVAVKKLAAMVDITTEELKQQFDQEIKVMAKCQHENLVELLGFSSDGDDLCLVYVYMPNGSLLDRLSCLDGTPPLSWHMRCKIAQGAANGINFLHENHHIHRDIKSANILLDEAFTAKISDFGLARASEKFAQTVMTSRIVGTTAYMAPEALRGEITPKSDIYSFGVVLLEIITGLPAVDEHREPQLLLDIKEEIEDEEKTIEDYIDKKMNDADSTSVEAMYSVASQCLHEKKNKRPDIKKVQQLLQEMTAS

Chain of Fibroblast growth factor receptor 1 (P11362 22-822 limits assumed): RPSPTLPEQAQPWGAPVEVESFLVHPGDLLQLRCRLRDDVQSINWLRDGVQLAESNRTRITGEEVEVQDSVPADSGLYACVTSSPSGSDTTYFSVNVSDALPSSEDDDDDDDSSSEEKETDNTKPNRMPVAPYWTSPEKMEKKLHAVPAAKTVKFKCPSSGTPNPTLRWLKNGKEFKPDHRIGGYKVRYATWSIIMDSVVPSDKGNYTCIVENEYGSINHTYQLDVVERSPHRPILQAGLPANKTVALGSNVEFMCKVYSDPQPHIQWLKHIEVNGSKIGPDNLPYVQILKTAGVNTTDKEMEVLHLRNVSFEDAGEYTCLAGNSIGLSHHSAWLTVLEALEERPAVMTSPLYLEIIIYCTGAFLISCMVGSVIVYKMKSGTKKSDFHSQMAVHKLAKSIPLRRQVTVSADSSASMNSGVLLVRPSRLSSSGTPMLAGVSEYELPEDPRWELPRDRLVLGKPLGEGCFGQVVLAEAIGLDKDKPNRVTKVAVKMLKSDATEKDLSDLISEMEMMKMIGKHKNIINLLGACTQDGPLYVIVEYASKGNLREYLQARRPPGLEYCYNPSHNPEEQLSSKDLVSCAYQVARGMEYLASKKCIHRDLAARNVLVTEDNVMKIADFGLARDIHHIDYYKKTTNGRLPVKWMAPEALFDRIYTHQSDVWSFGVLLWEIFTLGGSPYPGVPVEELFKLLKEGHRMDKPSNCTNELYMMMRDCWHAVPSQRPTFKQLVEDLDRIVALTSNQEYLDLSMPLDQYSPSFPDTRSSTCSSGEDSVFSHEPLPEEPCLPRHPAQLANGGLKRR
Chain of Vascular endothelial growth factor receptor 3 (P35916 whole entry): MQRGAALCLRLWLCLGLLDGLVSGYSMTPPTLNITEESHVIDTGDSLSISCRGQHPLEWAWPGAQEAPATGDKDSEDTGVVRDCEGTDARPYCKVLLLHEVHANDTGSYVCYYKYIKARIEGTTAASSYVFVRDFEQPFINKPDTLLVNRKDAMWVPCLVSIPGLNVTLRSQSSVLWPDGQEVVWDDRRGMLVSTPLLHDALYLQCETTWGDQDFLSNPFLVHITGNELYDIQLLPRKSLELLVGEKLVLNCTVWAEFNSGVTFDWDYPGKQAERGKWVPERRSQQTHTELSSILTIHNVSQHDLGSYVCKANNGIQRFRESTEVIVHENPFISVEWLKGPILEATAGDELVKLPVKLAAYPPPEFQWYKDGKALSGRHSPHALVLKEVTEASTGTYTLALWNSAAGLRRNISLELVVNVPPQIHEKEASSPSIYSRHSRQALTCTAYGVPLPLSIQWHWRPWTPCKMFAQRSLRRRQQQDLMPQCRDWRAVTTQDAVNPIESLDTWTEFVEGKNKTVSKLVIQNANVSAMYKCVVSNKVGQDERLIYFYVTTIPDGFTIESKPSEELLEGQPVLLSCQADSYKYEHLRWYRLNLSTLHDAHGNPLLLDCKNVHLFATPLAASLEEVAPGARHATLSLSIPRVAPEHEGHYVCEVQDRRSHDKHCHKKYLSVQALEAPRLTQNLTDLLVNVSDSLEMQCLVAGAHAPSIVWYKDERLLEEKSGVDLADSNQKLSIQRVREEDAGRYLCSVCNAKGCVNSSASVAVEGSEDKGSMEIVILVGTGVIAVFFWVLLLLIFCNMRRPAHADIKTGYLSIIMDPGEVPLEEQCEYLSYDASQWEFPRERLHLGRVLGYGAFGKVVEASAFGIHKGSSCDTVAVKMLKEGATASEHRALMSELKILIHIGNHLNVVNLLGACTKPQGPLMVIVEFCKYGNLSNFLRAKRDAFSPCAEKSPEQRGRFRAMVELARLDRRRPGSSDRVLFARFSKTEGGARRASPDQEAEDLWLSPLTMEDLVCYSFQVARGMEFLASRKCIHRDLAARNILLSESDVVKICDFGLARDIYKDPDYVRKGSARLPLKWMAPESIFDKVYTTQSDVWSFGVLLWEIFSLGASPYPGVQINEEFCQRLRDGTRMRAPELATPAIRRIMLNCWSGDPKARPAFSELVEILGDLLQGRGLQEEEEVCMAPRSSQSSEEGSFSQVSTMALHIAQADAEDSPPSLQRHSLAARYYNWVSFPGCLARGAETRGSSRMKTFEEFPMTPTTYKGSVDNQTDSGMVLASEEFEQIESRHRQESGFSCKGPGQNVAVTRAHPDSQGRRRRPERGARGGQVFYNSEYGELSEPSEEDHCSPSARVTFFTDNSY
Chain of Activin receptor type-1-like (Homo sapiens) (P37023 whole entry): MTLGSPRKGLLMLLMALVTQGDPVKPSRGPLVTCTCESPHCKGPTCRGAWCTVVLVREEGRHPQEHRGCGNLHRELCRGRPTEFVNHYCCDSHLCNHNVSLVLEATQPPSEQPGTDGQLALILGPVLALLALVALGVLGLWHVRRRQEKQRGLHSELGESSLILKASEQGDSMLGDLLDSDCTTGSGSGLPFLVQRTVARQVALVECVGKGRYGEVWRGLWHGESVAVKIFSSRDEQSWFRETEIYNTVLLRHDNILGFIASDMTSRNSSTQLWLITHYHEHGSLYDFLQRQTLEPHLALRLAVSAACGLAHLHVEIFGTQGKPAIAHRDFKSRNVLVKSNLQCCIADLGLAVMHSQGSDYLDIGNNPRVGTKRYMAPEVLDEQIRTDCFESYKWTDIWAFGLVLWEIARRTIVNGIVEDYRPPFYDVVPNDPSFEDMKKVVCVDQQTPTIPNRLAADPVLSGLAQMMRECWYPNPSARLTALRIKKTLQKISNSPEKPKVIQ
Chain of Mitogen-activated protein kinase kinase kinase 4 (Homo sapiens) (Q9Y6R4 whole entry): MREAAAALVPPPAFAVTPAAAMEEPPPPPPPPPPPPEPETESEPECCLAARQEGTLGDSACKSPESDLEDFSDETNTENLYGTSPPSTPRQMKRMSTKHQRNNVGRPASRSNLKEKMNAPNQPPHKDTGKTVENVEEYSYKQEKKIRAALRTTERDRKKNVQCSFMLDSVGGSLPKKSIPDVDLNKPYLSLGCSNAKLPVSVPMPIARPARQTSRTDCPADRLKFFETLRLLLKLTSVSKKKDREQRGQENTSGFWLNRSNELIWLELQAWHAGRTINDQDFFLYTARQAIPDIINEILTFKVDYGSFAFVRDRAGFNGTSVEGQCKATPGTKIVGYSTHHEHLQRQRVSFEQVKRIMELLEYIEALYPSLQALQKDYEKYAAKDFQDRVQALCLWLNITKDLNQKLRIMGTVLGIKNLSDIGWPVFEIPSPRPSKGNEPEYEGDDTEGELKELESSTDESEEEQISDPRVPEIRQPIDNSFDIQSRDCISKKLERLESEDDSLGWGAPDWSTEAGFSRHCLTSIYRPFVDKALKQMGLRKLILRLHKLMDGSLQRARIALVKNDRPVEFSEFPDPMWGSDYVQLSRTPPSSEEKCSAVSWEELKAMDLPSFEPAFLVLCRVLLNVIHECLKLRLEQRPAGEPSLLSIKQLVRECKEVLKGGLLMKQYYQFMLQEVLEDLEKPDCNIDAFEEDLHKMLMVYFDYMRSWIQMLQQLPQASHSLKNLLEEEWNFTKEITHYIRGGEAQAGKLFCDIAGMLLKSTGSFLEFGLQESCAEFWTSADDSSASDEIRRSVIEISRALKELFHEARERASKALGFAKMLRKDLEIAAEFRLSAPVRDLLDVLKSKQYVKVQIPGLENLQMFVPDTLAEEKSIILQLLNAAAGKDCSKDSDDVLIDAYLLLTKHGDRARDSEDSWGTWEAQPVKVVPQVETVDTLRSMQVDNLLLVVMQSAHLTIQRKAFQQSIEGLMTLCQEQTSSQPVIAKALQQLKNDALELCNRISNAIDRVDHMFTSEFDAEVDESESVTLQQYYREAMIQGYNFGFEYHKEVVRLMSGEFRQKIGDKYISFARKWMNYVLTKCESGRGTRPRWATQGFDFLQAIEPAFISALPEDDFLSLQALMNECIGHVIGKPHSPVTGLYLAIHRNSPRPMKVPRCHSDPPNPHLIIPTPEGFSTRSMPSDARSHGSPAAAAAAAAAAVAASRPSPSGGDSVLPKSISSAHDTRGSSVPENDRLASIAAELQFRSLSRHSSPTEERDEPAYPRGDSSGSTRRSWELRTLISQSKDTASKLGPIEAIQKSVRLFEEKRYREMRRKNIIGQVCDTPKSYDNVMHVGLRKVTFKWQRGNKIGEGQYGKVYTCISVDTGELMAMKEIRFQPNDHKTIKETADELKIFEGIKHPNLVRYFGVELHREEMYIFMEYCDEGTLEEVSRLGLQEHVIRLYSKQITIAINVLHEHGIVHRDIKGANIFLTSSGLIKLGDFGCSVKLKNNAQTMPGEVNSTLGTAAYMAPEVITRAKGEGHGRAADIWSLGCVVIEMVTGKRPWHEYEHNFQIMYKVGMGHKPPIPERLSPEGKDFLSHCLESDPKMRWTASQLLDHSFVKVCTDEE
Chain of Fibroblast growth factor receptor 3 (P22607 23-806 limits assumed): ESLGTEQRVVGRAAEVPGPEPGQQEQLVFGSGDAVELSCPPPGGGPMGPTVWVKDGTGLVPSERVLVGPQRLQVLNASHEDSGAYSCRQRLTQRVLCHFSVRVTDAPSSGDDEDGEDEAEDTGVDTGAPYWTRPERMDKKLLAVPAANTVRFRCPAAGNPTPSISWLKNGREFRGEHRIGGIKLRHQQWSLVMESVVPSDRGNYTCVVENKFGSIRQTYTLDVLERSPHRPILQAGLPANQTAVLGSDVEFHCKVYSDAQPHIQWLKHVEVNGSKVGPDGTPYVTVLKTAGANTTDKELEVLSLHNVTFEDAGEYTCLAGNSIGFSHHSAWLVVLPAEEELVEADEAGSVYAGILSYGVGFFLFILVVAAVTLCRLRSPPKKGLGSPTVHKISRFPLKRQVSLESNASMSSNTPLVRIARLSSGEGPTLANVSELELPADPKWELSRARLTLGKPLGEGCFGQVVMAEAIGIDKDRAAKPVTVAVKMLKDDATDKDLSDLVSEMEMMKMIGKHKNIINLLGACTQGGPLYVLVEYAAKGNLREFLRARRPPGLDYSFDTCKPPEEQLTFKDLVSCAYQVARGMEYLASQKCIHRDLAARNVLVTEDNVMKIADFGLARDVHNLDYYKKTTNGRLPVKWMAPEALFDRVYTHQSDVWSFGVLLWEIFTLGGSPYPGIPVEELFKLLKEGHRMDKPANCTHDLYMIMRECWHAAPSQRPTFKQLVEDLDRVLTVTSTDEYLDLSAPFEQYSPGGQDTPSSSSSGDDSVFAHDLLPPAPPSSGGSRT

With `Cc1cc(F)c(C(=O)Nc2cccc(-c3nncn3C(C)C)n2)cc1-n1cnc(C2CC2)c1` the % of control [1] was 92%.

Work on `Nc1cnc(N2CCc3cc(S(=O)(=O)Nc4c(F)cc(Cl)cc4F)cc(N4CCCC4=O)c32)nc1` [TP-020n] yielded a % of control [2] of 88%.

Work on `Cn1cc(-n2cnc3c(NCc4nc5cc(Cl)c(Cl)cc5[nH]4)nc(N4CCOCC4)nc32)cn1` yielded a % of control [3] of -4.1%.

In the case of `Cc1cc(CN)cc(C)c1-c1ncn(C)c1-c1cncn1C`, the dTagg [4] is reported as 0.2 K.

`Cc1cc([C@@H](C)Nc2ccccc2C(=O)O)c2nc(N3CCOCC3)cc(=O)n2c1` [AZD-6482] was tested, and the % of control [5] was 98%.

Work on `COc1cc(Nc2nc(C)cc(-c3cnn4nc(OC)ccc34)n2)cc(C(F)(F)F)c1` yielded a % of control [6] of 96% and a % of control [7] of 96%.

`COc1cc(C(=O)N2CC[C@@H](O)[C@@H](N)C2)cc2nc(-c3cc4ccccc4n3CC3CC3)n(C)c12` was tested, and the pXC50 (D(1A) dopamine receptor) was less than 4.5 M.

Work on `N#Cc1cccc(-c2c[nH]c3ncnc(N4CCOCC4)c23)c1` yielded a % of control [8] of 100%.

Compound `CNC(=O)Nc1ccc(-c2nc(N3CC4CCC(C3)O4)c3cnn(C4CCC5(CC4)OCCO5)c3n2)cc1` has a % of control [9] of 92%.

`O[C@H]1CC[C@H](Nc2ncc3nc(Nc4c(F)cc(F)cc4F)n([C@H]4CCOC4)c3n2)CC1` was tested, and the % of control [10] was 100%.

`CC[C@@H]1[C@H](F)C(=O)N[C@@H]1COc1nccc2cc(C(N)=O)c(OC)cc12` [ZIMLOVISERTIB] was tested, and the % of inhibition [11] was -1.2%.

`CCN(CC)CCCCNc1ncc2cc(-c3cc(OC)cc(OC)c3)c(NC(=O)NC(C)(C)C)nc2n1` showed a % of control [12] of 6%.

For `CCC(=O)N1CCN(c2ccc(-n3c(=O)ccc4cnc5ccc(-c6cnc7ccccc7c6)cc5c43)cc2C(F)(F)F)CC1`, the % of control [13] was 83% and the % of control [14] was 94%.

Work on `CN(C)C/C=C/C(=O)Nc1ccc(C(=O)N2CCCC(Nc3ncc(Cl)c(-c4c[nH]c5ccccc45)n3)C2)cc1` (stereo unspecified) yielded a % of control [15] of 99%.
